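Growth conditions: 96-well plates. Treatment: test compound, 48 hours, 5 concentrations. Analysis: linear interpolation between bracketing concentrations; unreached endpoints set to highest concentration. At the GI50, growth is halved.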 Calls of active or inactive are those of the source. No stated cut-off is given here; in the data, active = GI50 up to about 1.1 µM and inactive = higher.
What was measured:
Assay in all cases: DTP human tumour cell line panel, 48 h
[1] = system: A498
[2] = system: A549
[3] = system: ACHN
[4] = system: COLO 205
[5] = system: EKVX
[6] = system: HOP-62
[7] = system: HT-29
[8] = system: Hs-578T
[9] = system: M14
[10] = system: MDA-MB-435
[11] = system: NCI-H23
[12] = system: NCI-H522
[13] = system: OVCAR-5
[14] = system: PC-3
[15] = system: SF-295
[16] = system: SK-OV-3
[17] = system: SNB-75
[18] = system: TK-10
[19] = system: UACC-62
[20] = system: UO-31

Measured: GI50

OC1CSCCSCCCSCCSC1
inactive: [1] > 100 µM | [2] > 100 µM | [3] > 100 µM | [4] > 100 µM | [5] > 100 µM | [6] > 100 µM | [7] > 100 µM | [8] > 100 µM | [9] > 100 µM | [10] > 100 µM | [11] > 100 µM | [12] > 100 µM | [13] > 100 µM | [14] > 100 µM | [15] > 100 µM | [16] > 100 µM | [17] > 100 µM | [18] > 100 µM | [19] > 100 µM | [20] > 100 µM

From ChEMBL document CHEMBL1201862, “PubChem BioAssay data set” (2004)
